These results are taken from patent US11285156B2, “Substituted piperazines as KRAS G12C inhibitors” (Amgen Inc., priority 2018, dated 2022).

Test [1] has as its target GDP-bound KRAS protein (aa 1-169), containing both G12C and C118A amino acid substitutions (Homo sapiens (Human), UniProt P01116, C118A/G12C). Put plainly: Coupled nucleotide exchange assay (SOS-mediated nucleotide exchange, AlphaScreen). It is filed as biochemical. As to conditions: 5 min compound pre-incubation; for IC50: read-out: Coupled exchange IC50 (5 min; μM).
In test [2] the test system is Phosphorylation of ERK1/2 in MIA PaCa-2 cells. Put plainly: Phospho-ERK1/2 MSD assay in MIA PaCa-2 cells. It is filed as cell-based. The note with it: read-out: p-ERK IC50 (2 h, MiaPaCa-2; μM), 2 h compound treatment, MIA PaCa-2 cells, EGF stimulated. The gist of the method: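 Phospho-ERK1/2 measured by MSD electrochemiluminescence kit in RIPA lysates of MIA PaCa-2 cells. Cells were treated with compound titrations for 2 or 4 h at 37 °C, 5% CO2, followed by a 10 min pulse of 10 ng/mL EGF.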

The test system of test [3] is Phosphorylation of ERK1/2 in A549 cells. In words: Phospho-ERK1/2 MSD assay in A549 cells. The format is cell-based. As to conditions: read-out: p-ERK IC50 (2 h, A549; μM), 2 h compound treatment, A549 cells, EGF stimulated. The gist of the method:
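Phospho-ERK1/2 was quantified by MSD immunoassay in RIPA lysates of MIA PaCa-2 or A549 cells. Before lysis, cells received 10 ng/mL EGF for 10 min after 2 or 4 h exposure at 37° C. to a compound concentration series.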

Read-outs that look alike come from different tables or passages of the source.

GDP-bound KRAS protein (aa 1-169), containing both G12C and C118A amino acid substitutions, sequence (P01116 other isoform, or with tags, fused parts or gaps G12C/C118A): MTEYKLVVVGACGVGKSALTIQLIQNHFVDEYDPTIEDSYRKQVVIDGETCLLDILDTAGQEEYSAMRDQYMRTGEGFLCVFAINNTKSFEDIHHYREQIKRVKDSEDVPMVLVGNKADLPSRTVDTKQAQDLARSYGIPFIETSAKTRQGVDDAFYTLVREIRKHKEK

For the compound `C=CC(=O)N1CCN(c2nc(=O)n(-c3c(C)ccnc3C(C)C)c3nc(-c4ccccc4F)c(Cl)cc23)CC1CC#N` (atropisomer, axis not shown; (M)) [Example 145-2-1, (M)-2-[4-[6-Chloro-7-(2-fluorophenyl)-1-(2-isopropyl-4-methyl-3-pyridyl)-2-oxo-pyrido[2,3-d]pyrimidin-4-yl]-1-prop-2-enoyl-piperazin-2-yl]acetonitrile], the half-maximal inhibitory concentration (IC50) is 0.294 µM in test [1], 0.356 µM in test [2] and greater than 7.5 µM in test [3].
The matching figures for `C=CC(=O)N1CCN(c2nc(=O)n(-c3c(C)ccnc3C(C)C)c3nc(-c4ccccc4F)c(Cl)cc23)CC1CC#N` (atropisomer, axis not shown; (M)) [Example 145-2-2, (M)-2-[4-[6-Chloro-7-(2-fluorophenyl)-1-(2-isopropyl-4-methyl-3-pyridyl)-2-oxo-pyrido[2,3-d]pyrimidin-4-yl]-1-prop-2-enoyl-piperazin-2-yl]acetonitrile]: 0.238 µM, 0.213 µM and greater than 7.5 µM.
As for `C=CC(=O)N1C[C@H](C)N(c2nc(=O)n3c4nc(c(Cl)cc24)-c2ccccc2C/C=C/Cc2cccc(C(C)C)c2-3)C[C@H]1C` (atropisomer, axis not shown; (M)) [Example 146-2, (M)-(9Z)-19-Chloro-22-((2S,5R)-2,5-dimethyl-4-(2-propenoyl)-1-piperazinyl)-3-(2-propanyl)-1,23,26-triazapentacyclo[16.6.2.0~2,7~.0~12,17~.0~21,25~]hexacosa-2,4,6,9,12,14,16,18,20,22,25-undecaen-24-one, (M)-19-chloro-22-((2S,5R)-2,5-dimethyl-4-(2-propenoyl)-1-piperazinyl)-3-(2-propanyl)-1,23,26-triazapentacyclo[16.6.2.0~2,7~.0~12,17~.0~21,25~]hexacosa-2,4,6,9,12,14,16,18,20,22,25-undecaen-24-one], the IC50 in test [1] worked out at 0.028 µM; in test [2] (Homo sapiens, MIA PaCa-2, 2 h), 0.038 µM; in test [3] (Homo sapiens, A549, 2 h), 6.51 µM.
As for `C=CC(=O)N1CCN(c2nc(=O)n(-c3c(C)ccnc3C(C)C)c3nc(-c4ccccc4F)c(Cl)cc23)C2CC21` (atropisomer, axis not shown; (M)) [Example 222, (M)-4-(5-Acryloyl-2,5-diazabicyclo[4.1.0]heptan-2-yl)-6-chloro-7-(2-fluorophenyl)-1-(2-isopropyl-4-methylpyridin-3-yl)pyrido[2,3-d]pyrimidin-2(1H)-one], the results for the IC50 in test [1], in test [2] and in test [3] were 0.705 µM, 0.057 µM and 2.71 µM, respectively.
The matching figures for `C=CC(=O)N1CCN(c2nc(=O)n(-c3c(C)ccnc3C(C)C)c3nc(-c4ccccc4F)c(Cl)cc23)[C@H]2C[C@H]21` (atropisomer, axis not shown; (M)) [Example 222-2, (M)-4-((1S,6R)-5-acryloyl-2,5-diazabicyclo[4.1.0]heptan-2-yl)-6-chloro-7-(2-fluorophenyl)-1-(2-isopropyl-4-methylpyridin-3-yl)pyrido[2,3-d]pyrimidin-2(1H)-one]: 0.014 µM, 0.048 µM and 2.52 µM.
In the case of `C#Cc1ccc(F)c(-c2nc3c(cc2Cl)c(N2C[C@@H](C)N(C(=O)C=C)C[C@@H]2C)nc(=O)n3-c2c(C)ccnc2C(C)C)c1` (atropisomer, axis not shown; (M)) [Example 226, (M)-6-Chloro-4-[(2S,5R)-2,5-dimethyl-4-prop-2-enoyl-piperazin-1-yl]-7-(5-ethynyl-2-fluoro-phenyl)-1-(2-isopropyl-4-methyl-3-pyridyl)pyrido[2,3-d]pyrimidin-2-one], the IC50 in test [1] is 0.04 µM; in test [2] it was 0.063 µM; in test [3], greater than 7.5 µM.
With `C=CC(=O)N1C[C@H](C)N(c2nc(=O)n3c4nc(c(Cl)cc24)-c2ccccc2C/C=C\Cc2ccccc2-3)C[C@H]1C` (atropisomer, axis not shown; (P)) [Example 146-3], the 50% inhibitory concentration (IC50) in test [1] is 7.03 µM; in test [2], 4.26 µM; in test [3] (Homo sapiens, A549, 2 h), greater than 7.5 µM.
Regarding `C=CC(=O)N1C[C@H](C)N(c2nc(=O)n(-c3c(C)ccnc3C(C)C)c3nc(-c4ccccc4C(C)O)c(Cl)cc23)C[C@H]1C` (mixture of isomers) [Example 92-43, (M)-6-Chloro-4-[(2S,5R)-2,5-dimethyl-4-prop-2-enoyl-piperazin-1-yl]-7-[2-[(1RS)-1-hydroxyethyl]phenyl]-1-(2-isopropyl-4-methyl-3-pyridyl)pyrido [2,3-d]pyrimidin-2-one], the “Coupled exchange IC50 (5 min; μM)” value in test [1] turned out to be 0.054 µM. Moreover, the IC50 in test [2] (Homo sapiens, MIA PaCa-2, 2 h) was 0.076 µM; in test [3] (Homo sapiens, A549, 2 h), greater than 7.5 µM.
For `C=CC(=O)N1C[C@H](C)N(c2nc(=O)n(-c3c(N(C)C)ccnc3C(C)C)c3nc(-c4ccccc4F)c(Cl)cc23)C[C@H]1C` (single isomer, unassigned) [Example 55-51-1], the IC50 is 0.298 µM in test [1], 0.157 µM in test [2] and greater than 7.5 µM in test [3].
The matching figures for `C=CC(=O)N1C[C@H](C)N(c2nc(=O)n(-c3c(N(C)C)ccnc3C(C)C)c3nc(-c4ccccc4F)c(Cl)cc23)C[C@H]1C` (single isomer, unassigned) [Example 55-51-2]: 0.07 µM, 0.037 µM and greater than 7.5 µM.
With `C=CC(=O)N1C[C@H](C)N(c2nc(=O)n(-c3c(CC)ccnc3C(C)C)c3nc(-c4ccccc4F)c(Cl)cc23)C[C@H]1C` (single isomer, unassigned) [Example 55-58-1], the half-maximal inhibitory concentration (IC50) is 0.03 µM in test [1], 0.107 µM in test [2] and greater than 7.5 µM in test [3].
The matching figures for `C=CC(=O)N1C[C@H](C)N(c2nc(=O)n(-c3c(CC)ccnc3C(C)C)c3nc(-c4ccccc4F)c(Cl)cc23)C[C@H]1C` (single isomer, unassigned) [Example 55-58-2]: 0.092 µM, 0.101 µM and greater than 7.5 µM.
As for `C=CC(=O)N1C[C@H](C)N(c2nc(=O)n(-c3c(CN4CCCC4)cccc3C(C)C)c3nc(-c4ccccc4F)c(Cl)cc23)C[C@H]1C` (single isomer, unassigned) [Example 80-10-2], the IC50 was 0.053 µM in test [1], 0.04 µM in test [2] and greater than 7.5 µM in test [3].
Turning to `C=CC(=O)N1C[C@H](C)N(c2nc(=O)n(-c3c(CN(C)C)cccc3C(C)C)c3nc(-c4ccccc4F)c(Cl)cc23)C[C@H]1C` (single isomer, unassigned) [Example 80-14-2], the 50% inhibitory concentration (IC50) in test [1] was 0.061 µM; in test [2] (Homo sapiens, MIA PaCa-2, 2 h), 0.031 µM; in test [3] (Homo sapiens, A549, 2 h), greater than 7.5 µM.
On to `C=CC(=O)N1C[C@H](C)N(c2nc(=O)n(-c3c(CN(C)C)ccnc3C(C)C)c3nc(-c4ccccc4F)c(Cl)cc23)C[C@H]1C` (single isomer, unassigned) [Example 80-16-1], for which the half-maximal inhibitory concentration (IC50) was 0.061 µM in test [1]; 0.041 µM in test [2] (Homo sapiens, MIA PaCa-2, 2 h); greater than 7.5 µM in test [3] (Homo sapiens, A549, 2 h).
The matching figures for `C=CC(=O)N1C[C@H](C)N(c2nc(=O)n(-c3c(CN(C)C)ncnc3C(C)C)c3nc(-c4ccccc4F)c(Cl)cc23)C[C@H]1C` (single isomer, unassigned) [Example 80-18-2]: 0.11 µM, 0.044 µM and greater than 7.5 µM.
As for `C=CC(=O)N1C[C@H](C)N(c2nc(=O)n(-c3c(C)cc(CN(C)C)cc3C(C)C)c3nc(-c4ccccc4F)c(F)cc23)C[C@H]1C` (single isomer, unassigned) [Example 80-20-2], the IC50 in test [1] was 0.368 µM; in test [2], 0.295 µM; in test [3] it was greater than 7.5 µM.

By IC50 is commonly meant the concentration that gives 50% inhibition.
